From ChEMBL document CHEMBL3785004, “New antimalarial norterpene cyclic peroxides from Xisha Islands sponge Diacarnus megaspinorhabdosa” (Bioorg Med Chem Lett, 2016) come the findings set out here.

pIC50: −log10 of the molar value.

Data set [1] can be described thus: Selectivity index, ratio of IC50 for Vero cells to IC50 for chloroquine resistant Plasmodium falciparum W2. The format is toxicity, cell-based. Conditions: monkey, read-out: Ratio IC50.
Data set [2] has as its system Plasmodium falciparum. Put plainly: Antimalarial activity against chloroquine resistant Plasmodium falciparum W2 after 72 hrs by LDH assay. Conditions: W2, 72 h. The format is functional, organism-based.
Data set [3] relates to Plasmodium falciparum. Put plainly: Antimalarial activity against chloroquine sensitive Plasmodium falciparum D6 after 72 hrs by LDH assay. The format is functional, organism-based. Conditions: D6, 72 h.
A short description of data set [4]: Selectivity index, ratio of IC50 for Vero cells to IC50 for chloroquine sensitive Plasmodium falciparum D6. In kind it is toxicity, cell-based. Conditions: monkey, read-out: Ratio IC50.

Broadly, the pIC50 is the negative decadic logarithm of the IC50, by convention in mol/L. Higher therefore signals a small IC50.

For `C=C1CCCC(C)(C)C1(O)CC/C(C)=C/CC[C@@]1(C)CC[C@H]([C@H](C)C(=O)O)OO1` (some centres undefined), the values for the selectivity ratio in data set [1] and in data set [4] were 2.4 and 1.6, respectively. Besides, the negative logarithm of the IC50 (pIC50) with Plasmodium falciparum [2] was 5.31; in the data set with Plasmodium falciparum [3] it was 5.14.

As for `CC1=C(CC[C@]2(C)CC[C@H]([C@@H](C)C(=O)O)OO2)C(C)(C)CCC1`, the values for the selectivity ratio in data set [1] and in data set [4] were 2.6 and 1.7, respectively. The results for the pIC50 with Plasmodium falciparum [2] and with Plasmodium falciparum [3] were 5.26 and 5.09, respectively.

For the molecule `C=C1CCCC(C)(C)C1(O)CC/C(C)=C/CC[C@@]1(C)CC[C@H]([C@H](C)C(=O)OC)OO1` (some centres undefined), the selectivity ratio worked out at 7 in data set [1] and 5.1 in data set [4]. Further, the pIC50 in the data set with Plasmodium falciparum [2] is 5.80; in the data set on Plasmodium falciparum [3], 5.66.

As to `COC(=O)[C@@H](C)[C@H]1CC[C@](C)(CC/C=C(\C)CCC2(O)C(C)CCCC2(C)C)OO1` (some centres undefined), the results for the selectivity ratio in data set [1] and in data set [4] were 2.6 and 2, respectively. The pIC50 with Plasmodium falciparum [2] is 5.38; in the data set with Plasmodium falciparum [3] it was 5.25.

Regarding `COC(=O)[C@@H](C)[C@H]1CC[C@](C)(CC/C=C(\C)CCC2(C)C(C)CCCC2(C)O)OO1` (some centres undefined), the values for the selectivity ratio in data set [1] and in data set [4] were 3.7 and 1.7, respectively. In addition, the pIC50 was 5.52 in the data set on Plasmodium falciparum [2] and 5.18 in the data set on Plasmodium falciparum [3].

For the molecule `CC1=C(CC/C(C)=C/CC[C@@]2(C)CC[C@H]([C@H](C)C(=O)O)OO2)C(C)(C)CCC1`, the selectivity ratio in data set [1] was found to be 2.2; in data set [4], 1.4. The pIC50 with Plasmodium falciparum [2] was 5.25; in the data set with Plasmodium falciparum [3], 5.07.

Molecule `C[C@@H]1CC[C@H]2[C@@H](C)C(=O)O[C@@H]3O[C@@]4(C)CC[C@@H]1[C@]32OO4` [ARTEMISININ] gave a pIC50 in the data set with Plasmodium falciparum [2] of 6.85.

With `COC(=O)[C@H](C)[C@H]1CC[C@@](C)(CCC2=C(C)C(=O)CCC2(C)C)OO1` [DIACARPEROXIDE A], the selectivity ratio in data set [1] was found to be 6.8; in data set [4], 6.5. Further, the negative-log IC50 (pIC50) in the data set on Plasmodium falciparum [2] was 5.72; in the data set on Plasmodium falciparum [3], 5.70.
